From patent EP4129284B1, “SERTACONAZOL FOR PROVIDING A SPORISTATIC AND/OR SPORICIDAL EFFECT” (Dr. Pfleger Arzneimittel GmbH, priority 2021, dated 2023)
In brackets after ≈: the same amount, converted by molar mass.

What was measured:
Assay in all cases: Microtiter plate laser nephelometry (MLN) growth test
Type in all cases: cell-based
[1] = test system: Trichophyton soudanense DSM 103786; conditions: DSM103786, T. soudanense; for MIC: plating of wells without visible growth in the MLN-test; for IC50: spore suspension in SGB, 37 °C, 120 h, growth as area under curve vs untreated control
Protocol: (§1) To allow a reasonable comparison between antimycotic drugs, the concentrations to be used in the following tests was determined first. Thus, the antimycotic effect was determined by microtiter plate laser nephelometry (MLN).
(§2) MLN is a direct method for measuring light, which is scattered by particles suspended in a solution in angles of up to 90 degree. With this technique, already minor particle concentrations can be determined in a suspension. Thus, this method provides a higher sensitivity than usual transmission readers, which detect the reduction of the intensity of light passing a suspension. Further, it is a very reliable technique for application in a 96-well format. It can be used to monitor the growth of microorganisms by the turbidity of the respective medium and to examine the effect of antimicrobial substances on the growth of microorganisms. Compared to other applied methods, MLN allows high throughput screenings, incubation over a long time and in situ monitoring of changes in the dose-response-curves.
(§3) Moreover, in most techniques, the minimum inhibitory concentration (MIC) can only be determined afterwards, whereas MLN allows the in situ acquisition of dose-response-curves and the simultaneous monitoring of changes in the IC50.
(§4) Candida albicans DSM 1386, Candida parapsilosis DSM 5784, Trichophyton rubrum DSM 16111,Trichophyton interdigitale IHEM 22939, Trichophyton soudanense DSM 103786, and Trichophyton mentagrophytes DSM 107608 were obtained from the DSMZ (German Collection of Microorganisms and Cell Cultures; Deutsche Sammlung von Mikroorganismen und Zellkulturen). Epidermophyton floccosum and Scorpolariopsis brevicaulis were obtained from a round robin test.
(§5) The yeasts were cultivated in Sabouraud-Glucose-Bouillon (SGB; Merck) for 24 h at 37°C at aerobic conditions. Dermatophytes were cultivated on Dermasel-Agarplates (Oxoid) for 3 weeks and subsequently treated with 5 mL sterile, physiological saline solution (Lot 14HD24, Fresenius Kabi Deutschland GmbH) for detaching the spores. The spore suspensions were transferred into sterile 50-ml-tubes (Greiner Bio-One), vortexed for 20 s and separated by cell sieves (40 µm, Greiner Bio-One). Subsequently, the spore number was determined via Neubauer-improved counting chambers and the spore suspension was adjusted to approximately 2 × 10^3/ml in SBG (Merck) for the MLN-experiments.
(§6) Solutions of sertaconazol, ciclopiroxolamin and terbinafin were prepared as 10 µg/µL DMSO (Sigma-Aldrich). The respective test concentrations were then obtained by diluting these solutions in SGB (Merck).
(§7) The MLN-test was then performed according to NCCLS M27-A2 and DIN EN 27027 as previously described (Burmester A, Hipler UC, Uhrlaß S, Nenoff P, Singal A, Verma SB, Elsner P, Wiegand C. Indian Trichophyton mentagrophytes squalene epoxidase erg1 double mutants show high proportion of combined fluconazole and terbinafine resistance. Mycoses. 2020; doi: 10.111 1/myc.13150). […] of the respective dilutions of sertaconazol, ciclopiroxolamin or terbinafin were added to the respective wells of a sterile, clear 96-well microplate (Greiner Bio-One) in quadruplicates together with 100 µL of the microorganism suspensions (as above). Blanks for each analysed substance concentration were added to each assay. The microtiter plates were sealed with a transparent foil (Greiner Bio-One). To allow the gas exchange, a perforation was applied to the right edge of the respective wells. The microtiter plates were then inserted in the microtiter plate laser nephelometer (NEPH-ELOstar Galaxy, BMG Labtech) and incubated at 37 °C while shaking for 48 h (yeasts) or, respectively, 120 h (mold, dermatophytes). For determining the growth of the microorganisms, the turbidity of each analysed substrate concentration was assigned to the incubation time. Subsequently, the area under curve was determined by the results and calculated as percentage of the untreated control (growth [%]). […]

[2] = test system: Candida parapsilosis DSM 5784; conditions: Lodderomyces parapsilosis, DSM5784; for IC50: C. parapsilosis (yeast), SGB, 37 °C, 48 h, growth as area under curve vs untreated control; for MIC: C. parapsilosis, plating of wells without visible growth in the MLN-test
Protocol: as §1, §2, §3, §4, §5, §6, §7

S. brevicaulis = conditions: Scopulariopsis brevicaulis; for IC50: S. brevicaulis (mold), SGB, 37 °C, 120 h, growth as area under curve vs untreated control; for MIC: S. brevicaulis, plating of wells without visible growth in the MLN-test
Protocol: as §1, §2, §3, §4, §5, §6, §7

[3] = test system: Trichophyton interdigitale IHEM 22939; conditions: IHEM22939, T. interdigitale; for MIC: plating of wells without visible growth in the MLN-test; for IC50: spore suspension in SGB, 37 °C, 120 h, growth as area under curve vs untreated control
Protocol: as §1, §2, §3, §4, §5, §6, §7

[4] = test system: Trichophyton mentagrophytes DSM 107608; conditions: DSM107608, T. mentagrophytes; for MIC: plating of wells without visible growth in the MLN-test; for IC50: spore suspension in SGB, 37 °C, 120 h, growth as area under curve vs untreated control
Protocol: as §1, §2, §3, §4, §5, §6, §7

[5] = test system: Trichophyton rubrum DSM 16111; conditions: DSM16111, T. rubrum; for MIC: plating of wells without visible growth in the MLN-test; for IC50: spore suspension in SGB, 37 °C, 120 h, growth as area under curve vs untreated control
Protocol: as §1, §2, §3, §4, §5, §6, §7

Epidermophyton floccosum = conditions: E. floccosum; for MIC: plating of wells without visible growth in the MLN-test; for IC50: spore suspension in SGB, 37 °C, 120 h, growth as area under curve vs untreated control
Protocol: as §1, §2, §3, §4, §5, §6, §7

[6] = test system: Candida albicans DSM 1386; conditions: for IC50: DSM1386, C. albicans (yeast), SGB, 37 °C, 48 h, growth as area under curve vs untreated control; for MIC: DSM1386, C. albicans, plating of wells without visible growth in the MLN-test
Protocol: as §1, §2, §3, §4, §5, §6, §7

Row | SMILES | MIC [1] [µg/mL] | IC50 [1] [µg/mL] | IC50 [2] [µg/mL] | MIC [2] [µg/mL] | IC50 (S. brevicaulis) [µg/mL] | MIC (S. brevicaulis) [µg/mL] | MIC [3] [µg/mL] | IC50 [3] [µg/mL] | MIC [4] [µg/mL] | IC50 [4] [µg/mL] | MIC [5] [µg/mL] | IC50 [5] [µg/mL] | MIC (Epidermophyton floccosum) [µg/mL] | IC50 (Epidermophyton floccosum) [µg/mL] | IC50 [6] [µg/mL] | MIC [6] [µg/mL]
1 | Clc1ccc(C(Cn2ccnc2)OCc2csc3c(Cl)cccc23)c(Cl)c1 (centres unmarked) [Sertaconazol, sertaconazol] | 3.1 (≈ 7.08 µM) | 0.0014 ± 0.0001 (≈ 0.0032 µM) | 0.0025 ± 0.0001 (≈ 0.00571 µM) | 20 (≈ 45.7 µM) | 0.11 ± 0.03 (≈ 0.251 µM) | 7.5 (≈ 17.1 µM) | 12.5 (≈ 28.6 µM) | 0.39 ± 0.01 (≈ 0.891 µM) | 3.8 (≈ 8.68 µM) | 0.018 ± 0.003 (≈ 0.0411 µM) | 1.3 (≈ 2.97 µM) | 0.0028 ± 0.0003 (≈ 0.0064 µM) | 1.6 (≈ 3.65 µM) | 0.022 ± 0.003 (≈ 0.0503 µM) | 0.54 ± 0.12 (≈ 1.23 µM) | 40 (≈ 91.4 µM)
2 | CN(C/C=C/C#CC(C)(C)C)Cc1cccc2ccccc12 [Terbinafin, terbinafin] | 0.015 (≈ 0.0515 µM) | 0.0016 ± 0.0005 (≈ 0.00549 µM) | 0.098 ± 0.002 (≈ 0.336 µM) | 3.8 (≈ 13 µM) | 0.69 ± 0.03 (≈ 2.37 µM) | 40 (≈ 137 µM) | 0.02 (≈ 0.0686 µM) | 0.0038 ± 0.0008 (≈ 0.013 µM) | 20 (≈ 68.6 µM) | 4.66 ± 0.04 (≈ 16 µM) | 0.006 (≈ 0.0206 µM) | 0.0015 ± 0.0002 (≈ 0.00515 µM) | 0.02 (≈ 0.0686 µM) | 0.0021 ± 0.0001 (≈ 0.00721 µM) | 24.2 ± 2.99 (≈ 82.9 µM) | 
3 | Cc1cc(C2CCCCC2)n(O)c(=O)c1 [Ciclopiroxolamin, ciclopiroxolamin] | 5.5 (≈ 26.5 µM) | 1.43 ± 0.78 (≈ 6.9 µM) | 4.73 ± 0.09 (≈ 22.8 µM) | 80 (≈ 386 µM) | 4.85 ± 1.79 (≈ 23.4 µM) | 60 (≈ 289 µM) | 10 (≈ 48.2 µM) | 2.62 ± 0.62 (≈ 12.6 µM) | 10 (≈ 48.2 µM) | 2.09 ± 0.78 (≈ 10.1 µM) | 10 (≈ 48.2 µM) | 1.02 ± 0.22 (≈ 4.92 µM) | 7.5 (≈ 36.2 µM) | 1.46 ± 0.22 (≈ 7.04 µM) | 4.01 ± 0.71 (≈ 19.3 µM) | 40 (≈ 193 µM)
